Laboratory results taken from patent US20100286069A1, “CATIONIC PEPTIDE FOR DELIVERING AN AGENT INTO A CELL” (priority 2007, published 2010).
Where no end group is shown, it is not given here.

How the values were obtained:
HepG2 cells = assay: In vitro luciferase expression in HepG2 (Example 1); assay type: cell-based, human
Experimental: (§1) In vitro luciferase and GFP expression: HEK 293 and HepG2 cells were maintained in Dulbecco's modified Eagle's medium (DMEM) and 4T1 cells were cultured in RPMI 1640 growth medium at 37° C. with 5% CO2. All growth media used were completed with 10% fetal bovine serum, 100 μg/mL of streptomycin and 100 U/ml of penicillin.
(§2) One day before transfection, cells were seeded at a density that depended on the cell line and type of experiments. For the luciferase transfection assay, 0.5 mL of medium containing 5-8×10^4 cells were seeded into each well of a 24-well plate, while 1.0 mL of medium containing 1.8-2.0×10^5 cells were pipetted into each well of a 12-well plate for GFP expression. Peptide/DNA complexes were formed at various N/P ratios in 10 mM PBS (pH 7.0) by dripping equivolume solutions of peptide into DNA. The mixture was then vortexed for ˜10 seconds and left to stand for at least 30 minutes before usage. Meanwhile, all media were replaced with fresh ones. […]
(§3) Analysis for luciferase expression was carried out after 3 days. […] The relative light unit (RLU) was measured with a luminometer (Lumat LB 9507, EG&G Berthold) and normalized against the protein concentration as measured with a bicinchoninic acid protein assay kit (Pierce). Luciferase activity was finally expressed as RLU/mg protein ±standard deviation of at least 4 samples. […]

HEK293 cells [1] = assay: GFP transfection assay in HEK293; assay type: cell-based, human
Experimental: as §1, §2
For the GFP transfection assay, cells were harvested after 2 days. […] The percentage of cells expressing GFP was then determined using a flow cytometer (FACSCalibur, Becton Dickinson) from 10,000 events and reported as a mean±standard deviation of at least 4 samples. […]

HEK293 cells [2] = assay: In vitro luciferase expression in HEK293 (Example 1); assay type: cell-based, human
Experimental: as §1, §2, §3

[3] = tested on: subcutaneous 4T1 breast tumors; assay: In vivo luciferase expression in 4T1 tumor-bearing mice
Experimental: In vivo luciferase expression: Female Balb/c mice (Centre for Animals Resources, National University of Singapore) weighing 18-20 g were subcutaneously injected with 0.1 mL of serum-free RPMI 1640 containing 4×10^5 4T1 cells. A tumor was then allowed to develop in each mouse for 10-12 days. PEI and different formulations of I/DNA complexes were prepared as above, and 30 μl of sample containing 4 μg of DNA was injected directly into each tumor. The tumor tissues were harvested two days later. To analyse for luciferase activity, each tumor was first thoroughly homogenised in lysis buffer, followed by two further freeze-thaw cycles. The mixture was then centrifuged and assayed for its luciferase activity as described above. Expression level was given as RLU/mg protein ±standard deviation of at least 4 mice.
Finally, the in vivo gene transfection capacity of the peptides was evaluated by performing luciferase expression experiments with peptide I on mice bearing subcutaneous 4T1 breast tumors. […] This may be because the amount of DNA being delivered by the supernatant and sediment formulations was smaller. The large DNA complexes might also not be uniformly distributed in the tumor, limiting the cellular uptake of the large complexes. […]

4T1 cells = assay: In vitro luciferase expression in 4T1 (Example 1); assay type: cell-based, mouse
Experimental: as §1, §2, §3

[4] = Zeta potential of pure peptide; assay type: physicochemical
DNA = assay: Kinetics of DNA capture (PicoGreen); assay type: binding
Experimental: Upon condensation of the DNA, however, PicoGreen becomes excluded resulting in a drop in florescent intensity. Making use of this behavior, the kinetics of the DNA capturing process was traced and quantified. At time=0, the peptide solution was dripped into the DNA solution and vortexed for ˜10 seconds. At appropriate time intervals, 10 μL of the complex solution was taken out and mixed with 990 μL of PicoGreen working solution (diluted 400 times from its stock solution with TE buffer, pH 7.3). The fluorescence emission spectrum was then recorded with a Fluorolog LFI 3751 fluorescence spectrometer (Jobin Yvon Horiba). The excitation wavelength used was 480 nm and the silts were set to 4 nm. The fluorescence area intensity at any time point expressed as a percentage of the fluorescence intensity obtained with the initial concentration of DNA (before mixing with peptide) was used to reflect the concentration of uncaptured/loosely captured DNA. A profile was plotted to trace the temporal evolution of the DNA capturing process. Blanks and background were corrected for in all calculations.
To further understand the efficiency and kinetics of DNA capture by the peptides, PicoGreen was used as a sensitive fluorescence probe. […] This behavior can be employed to trace the temporal evolution of free/loosely bound DNA in solution.

plasmid DNA = assay: Agarose gel electrophoresis DNA binding assay (Example 1); conditions: 10 mM PBS pH 7.0; for N/P ratio at which bulk electrophoretic migration of DNA is retarded: N/P = arginine residues to DNA phosphorus
Experimental: DNA binding and protection assays: Agarose gel electrophoresis was conducted to study the DNA binding ability of the peptides. The peptide/DNA complexes containing 2.5 μg of DNA per 50 μL of solution were formed at various N/P ratios. The complex solution (10 μL), together with 2 μL of loading dye (Promega), were then loaded into the wells of a 1.0 wt % agarose gel preloaded with 2 μL of ethidium bromide (per 50 mL of gel solution), and electrophoresed at 80 V for 50 minutes prior to imaging (ChemiGenius Q, Syngene).
To evaluate the ability of the peptides to fully condense DNA so as to prevent its premature degradation en route to the nuclei of cells, plasmid DNA encoding the 6.4 kb firefly luciferase (pCMV-luciferase VR1255_C) driven by the cytomegalovirus (CMV) promoter (Carl Wheeler, Vical, U.S.A.) was bound to each peptide in 10 mM phosphate-buffered saline (PBS, pH 7.0) at various N/P ratios (defined here as the molar ratio of arginine residues in the peptide to the phosphorus content in DNA). Gel electrophoresis assays were then performed.

[5] = MTT cytotoxicity assay in 4T1 (Example 1); assay type: cell-based; conditions: mouse, 4T1 cells; read-out: cells viable at peak luciferase expression
Experimental: Cytotoxicity assay: Cells were seeded onto 96-well plates at a density of 6-10×10^3 cells/well. After 24 hours, all media were replaced with fresh ones and 10 μL of sample was introduced into each well. The sample consisted of either pure peptide or […] dissolved in the medium at the desired concentration. After 4 hours, all media were aspirated and replaced with fresh ones. Cytotoxicity analysis was carried out 3 days later by first replacing all wells with fresh media and adding 20 μL of MTT (5 mg/mL in PBS). After incubating for another 3 hours, all wells were carefully aspirated and replaced with 0.15 mL of DMSO to dissolve the internalized purple formazan crystals. The solution was homogenised and the relative colour intensity was measured with a microplate reader (PowerWave X, Bio-Tek Inc.). A test wavelength of 550 nm and a reference wavelength of 690 nm were used. Cell viability was represented by the average of (absorbance550 nm−absorbance690 nm) of the sample expressed as a percentage of the intensity of the controls ±standard deviation. Each data point was repeated at least 8 times.
For complexes of F, I and W, a peptide concentration of 0.02 and 0.10 mg/mL will approximately correspond to N/P ratio 5 and 25, respectively. For H, a peptide concentration of 0.03 and 0.09 mg/mL will approximately correspond to N/P ratio 10 and 30. […]

[6] = tested on: HEK293, HepG2 and 4T1 cells; assay: In vitro luciferase expression, all three cell lines (Example 1); assay type: cell-based, human, mouse; conditions: all cell lines tested
Experimental: as §1, §2, §3

Substance: FFFFFHHHHRRRRRRRR-NH2 [F, NH2—F5H4R8—CONH2]
- luciferase expression level compared among the peptides (HepG2 cells): highest luciferase expression level
- luciferase expression level, times that of PEI (HepG2 cells): 0.2 times
- proportion of cells transfected with the GFP gene, comparison (HEK293 cells [1]): transfected more HEK293 cells with the GFP gene than H
- luciferase expression level compared among the peptides (HEK293 cells [2]): highest luciferase expression level
- luciferase expression level, times that of PEI (HEK293 cells [2]): 0.8 times

Substance: IIIIIHHHHRRRRRRRR-NH2 [I, NH2—I5H4R8—CONH2]
- gene expression in mouse breast cancer model compared with PEI [3]: much more efficiently than PEI
- luciferase expression level compared among the peptides (4T1 cells; 4T1): optimal
- peak luciferase expression level, times higher than PEI (4T1 cells; 4T1 cells, PEI branched Mw 25,000): 6.4 times
- zeta potential of pure peptide [4]: 15.8±0.2 mV
- quenching of PicoGreen fluorescence compared with H (DNA): to a greater extent
- N/P ratio from which ethidium bromide is completely excluded from the condensed DNA (plasmid DNA): ≥ 5
- N/P ratio at which bulk electrophoretic migration of DNA is retarded (plasmid DNA): 2
- viability at 4 h [5]: ~90%

Substance: NH2—H4R8—CONH2
- zeta potential of pure peptide [4]: 8.0±0.2 mV
- N/P ratio at which bulk electrophoretic migration of DNA is retarded (plasmid DNA): 5

Substance: NH2—W5H4R8—CONH2 (H-WWWWWHHHHRRRRRRRR-NH2)
- gene expression level compared among the peptides [6]: lowest gene expression level
